Data published in US11512073B2, “Benzimidazole derivatives, pharmaceutical composition comprising the same, and use thereof” (Chongqing University of Arts and Sciences, priority 2020, dated 2022).

Assays:
[1] = tested on: TNBC cells; assay: Cell counting assay with microscope; type: cell-based, Human; settings: 48 h
Description: FIG. 2A: cell viability was measured with the MTT assay. MDA-MB-231 and MDA-MB-468 cells were exposed to the indicated concentrations of compound 7a for 24, 48 and 72 h. FIGS. 2B and 2C: cell morphology and cell count of MDA-MB-231 and MDA-MB-468 cells were captured with microscope after treating with the indicated concentrations of compound 7a for 48 h. These cells were visualized with the images and quantitated by histogram, Scale bar, 100 μm. FIGS. 2D and 2E: colony formation assay was performed to evaluate TNBC growth in vitro after treatment with the indicated concentrations of compound 7a for 14 days. The colonies were visualized with the images and quantitated by histogram.

[2] = tested on: MDA-MB-231 xenograft; assay: Animal xenograft model; type: in vivo, NOD/SCID mice
Description: For the in vivo assay, six-week-old female NOD/SCID mice weighing 16-20 g were used, which were maintained in the SPF (Specific Pathogen Free) laboratory animal environment and under a normal daily light/dark cycle. During the experiment, 1×10^7 MDA-MB-231 cells were suspended in 100 μL serum-free DMEM and injected subcutaneously into the left groin region of the mice. Tumor volume was measured regularly. On day 22 post-tumor implanted, the NOD/SCID mice were randomly divided into three groups (n=6) on the basis of their tumor volume to insure a similar starting tumor volume of all the groups. The appropriate dose of compound 7a (5 mg/kg, 15 mg/kg) dissolved in 100 μL solvent (10% ethanol, 40% PEG400 and 50% corn oil) was administered every 3 days by intraperitoneal injection when the xenograft tumor volume attained around 100 mm^3, while the control group received equal volume solvent every 3 days in a similar method. The tumor size was measured once every 3 days with a caliper, and tumor size was calculated using the standard formula (L×W^2)/2, where L and W represents the length and width, respectively. The mice were sacrificed on Day 46 (Day 25 after treatment), and the xenograft tumors were obtained and weighed. Then the tumor tissues were collected and divided into two portions, one was fixed in 4% PFA and embedded by paraffin for Hematoxylin & eosin (HE) and immunohistochemical staining, anther was performed immunoblotting.
For immunohistochemistry, the embedded samples were sectioned and incubated with anti-Ki-67 overnight at 4° C. Then, the sections were incubated with HRP labeled secondary antibody and were observed under the Olympus BX73 microscope. Five fields were randomly selected to evaluate the positivity.

[3] = tested on: MDA-MB-231 and MDA-MB-468 cells; assay: Colony forming assay; type: cell-based, Human; settings: 0, 5, 10, 20 μmol/L
Description: MAD-MB-231 and MDA-MB-468 cells were seeded in a six-well plate at 1000 cells/well and treated with various concentrations of compound 7a (0, 5, 10, 20 μmol/L) for 48 h. After discarding the supernatant, the cells were cultured with fresh medium for 15 days until formed the visible colonies. Finally, colonies were fixed with 4% paraformaldehyde (PFA) and stained with crystal violet for 30 min to enable enumeration of colonies.

[4] = tested on: MDA-MB-231 and MDA-MB-468 cells; assay: Cell cycle analysis by flow cytometry; type: cell-based, Human; settings: 48 h
Description: (§1) Cells in a logarithmic growth phase were harvested and seeded into six-well plates with 30% cell density and cultured overnight in an incubator. Once adhered to the bottom of the plate, cells were treated with different doses of compound 7a for 48 h, and then employed in flow cytometry analysis. For cell cycle assay, the collected cells were washed with phosphate-buffered saline (PBS) and fixed with 70% cold ethanol in 4° C. for 24 h. After washing three times of PBS, the fixed cells were incubated in 200 μL PBS solution containing 1 μL propidium iodide (BD, CA, USA) and 1 μL RNase (Sigma Aldrich, USA) at 37° C. for 0.5 h. Finally, cells were analyzed using BD Accuri™ C6 flow cytometry (BD Biosciences, USA). For the cell apoptosis assay, after the cells were harvested and washed twice with PBS, the percentage of apoptotic cells were measured using an Annexin V-FITC/PI Apoptosis Assay Kit (BD Biosciences, USA). The BD Accuri™ C6 flow cytometry was used to analyze the apoptosis process. The FlowJo software was used to analyze the cell cycle arrest and apoptotic rate.

[5] = tested on: MDA-MB-231 and MDA-MB-468 cells; assay: Immunoblotting of cell cycle, apoptosis, autophagy and DDR proteins; type: cell-based, Human
Description: MDA-MB-231 and MDA-MB-468 cells were treated with the compound 7a (0, 5, 10 and 20 μmol/L) for 48 h, total protein was extracted using RIPA buffer (Beyotime, Shanghai, China) supplemented with protease/phosphatase inhibitor cocktail (Roche, Mannheim, Germany) at 4° C. for 30 min. The protein concentration was quantified by the BCA protein assay kit (Beyotime). Protein samples (50 μg) were separated by SDS-PAGE with appropriate gel concentration and subsequent electrophoretically transferred onto PVDF membranes (Millipore Corporation, MA, USA). After blocking with 5% BSA for 2 h at ambient temperature, the membranes sections were incubated gently with the indicated primary antibodies overnight at 4° C. and washed with TBST for 5×5 minutes. Subsequently, the membranes were then incubated with corresponding IRDye 800CW goat anti-mouse IgG (H+L) or IRDye 680LT donkey anti-rabbit IgG (H+L) secondary antibody for 1 h. The objective protein signal was obtained using an odyssey two-color infrared fluorescence imaging system (Li-cor, NE, USA). For immunoprecipitation, harvested cells were lysed in ice-cold NP-40 buffer including 50 mM Tris-HCl (pH 7.4), 150 mM NaCl, 0.5% NP-40, 1 mM Na3VO4, 50 mM NaF and protease inhibitor cocktail (Roche). Lysate was centrifuged at 12,000×g for 20 min at 4° C. The supernatant was incubated with anti-HA at 4° C. overnight, followed by incubation with Protein-A/G beads overnight (Beyotime). The proteins were washed six times with ice-cold NP-40 buffer and eluted with SDS loading buffer containing mercaptoethanol by boiling for 10 min.

[6] = tested on: MDA-MB-231 cells; assay: Annexin V-FITC/PI apoptosis assay by flow cytometry; type: cell-based, Human; settings: 48 h, dose-dependent; from 3.64% in control; p<0.01
Description: as §1

[7] = tested on: MDA-MB-468 cells; assay: as above; type: cell-based, Human; settings: 48 h, dose-dependent; from 5.02% in control; p<0.01
Description: as §1

O=C(NC1CCCCC1)c1[nH]cnc1-c1nc2ccccc2[nH]1 [Compound 7a]
proliferation by cell count [1]: significantly inhibited proliferation of TNBC cells | tumor growth (tumor volume and weight) ([2]; 5 and 15 mg/Kg, intraperitoneal, after 24 days, dose dependent): considerably suppressed human TNBC tumor growth | size of harvested tumors ([2]; 5 and 15 mg/kg, intraperitoneal, every 3 days): dramatically smaller than tumors from vehicle-treated control mice | LC3B-II, p62, γH2AX and PARP in tumor tissue ([2]; immunoblotting of tumors, 5 and 15 mg/kg): concentration-dependent upregulation of LC3B-II, p62, γH2AX and PARP | cell count (H&E) and Ki67 in tumor tissue ([2]; immunohistochemistry of tumors): significant decrease in cell count and Ki67 | colony formation [3]: smaller and decreased colony numbers | cell cycle distribution [4]: induced cell cycle arrest at S-phase | p62 level ([5]; TNBC cells): resulted in a p62 accumulation | expression of BRCA2, RAD51 and RNF8 ([5]; immunoblotting): significantly reduced | levels of BRCA2 and RAD51 ([5]; immunoblotting): dramatically decreased levels of both proteins in a dose-dependent manner | phosphorylation of ATM, NBS1 and SMC1 ([5]; immunoblotting): activated | p62 in nuclear and cytoplasmic proteins ([5]; immunoblotting of fractions): drastic p62 increase in the nucleus and cytoplasm in a dose-dependent manner | P21 and phosphorylation levels of CHK1 (Serine 345) and CHK2 (Threonine 68) ([5]; immunoblotting, 48 h): increased P21 and the phosphorylation levels of CHK1 (Serine 345) and CHK2 (Threonine 68) in a dose-dependent manner | anti-apoptotic protein Bcl-2 ([5]; immunoblotting, 48 h): decrease of anti-apoptotic protein Bcl-2 | cytochrome c, cleaved caspase-3, cleaved caspase-9 and cleaved PARP ([5]; immunoblotting, 48 h): increased in a dose-dependent manner | levels of Cyclin A, Cyclin B, CDK1 and CDK2 ([5]; immunoblotting, 48 h): decreased the levels of Cyclin A, Cyclin B, CDK1 and CDK2 | pro-apoptotic proteins Bak, Bim and Bax ([5]; immunoblotting, 48 h): elevated in a dose-dependent manner | γH2AX level ([5]; immunoblotting, dose-dependent): significantly increased | conversion to LC3B-II ([5]; immunofluorescence and western blotting, dose- and time-dependent): significantly induced | proportion of late-phase apoptosis [6]: 34.2% | proportion of late-phase apoptosis [7]: 36.4%
